Test results reported in ChEMBL document CHEMBL1154809, “Conventional and microwave assisted synthesis of small molecule based biologically active heterocyclic amidine derivatives” (2010).
Active and inactive are the calls of the source. No cut-off for these calls is given here.

Legend:
[1] = test system: Rattus norvegicus; assay: Antiinflammatory activity against carrageenan-induced paw oedema in Charles Foster albino rat at 50 mg/kg, po administered 30 mins before carrageenan challenge measured after 1 to 3 hrs by water plethysmometer; assay type: functional
[2] = test system: HCT-15; assay: Anticancer activity against human HCT15 cells at 10 uM after 48 hrs by sulforhodamine B assay; assay type: functional, cell-based
[3] = test system: HepG32; assay: Anticancer activity against human […] cells at 10 uM after 48 hrs by sulforhodamine B assay; assay type: functional, cell-based
[4] = test system: A549; assay: Anticancer activity against human A549 cells at 10 uM after 48 hrs by sulforhodamine B assay; assay type: functional, cell-based
[5] = test system: HOP-62; assay: Anticancer activity against human HOP62 cells at 10 uM after 48 hrs by sulforhodamine B assay; assay type: functional, cell-based
[6] = test system: IMR-32; assay: Anticancer activity against human IMR32 cells at 10 uM after 48 hrs by sulforhodamine B assay; assay type: functional, cell-based
[7] = test system: DU-145; assay: Anticancer activity against human DU145 cells at 10 uM after 48 hrs by sulforhodamine B assay; assay type: functional, cell-based

Row | SMILES | Activity [1] [%] | Activity [2] | Activity [3] | Activity [4] | Activity [5] | Activity [6] | Activity [7]
1 | N/C(=N/Cc1ccco1)c1ccncc1 | 15.2 | inactive | inactive | inactive | inactive | inactive | inactive
2 | N/C(=N/CCc1c[nH]cn1)c1cnccn1 | 25.4 | inactive | inactive | inactive | inactive | inactive | inactive
3 | CC(C)Cc1ccc(C(C)C(=O)O)cc1 (stereo unspecified) [IBUPROFEN] | 39 | inactive | inactive | inactive | inactive | inactive | inactive
4 | N/C(=N/Cc1ccccn1)c1ccncc1 | 33.8 | inactive | inactive | inactive | inactive | inactive | inactive
5 | N/C(=N/CCc1c[nH]c2ccccc12)c1cnccn1 | 23.9 | inactive | inactive | inactive | inactive | inactive | inactive
6 | N/C(=N/Cc1ccco1)c1cnccn1 | 36.6 | inactive | inactive | inactive | inactive | inactive | inactive
7 | N/C(=N/Cc1ccncc1)c1ccncc1 | 31 | inactive | inactive | inactive | inactive | inactive | inactive
8 | N/C(=N/CCc1c[nH]cn1)c1ccncc1 | 22.1 | inactive | inactive | inactive | inactive | inactive | inactive
9 | N/C(=N/CCCn1ccnc1)c1ccncc1 | 10 | inactive | inactive | inactive | inactive | inactive | inactive
10 | N/C(=N/CCCn1ccnc1)c1ccccn1 | 18.8 | inactive | inactive | inactive | inactive | inactive | inactive
11 | N/C(=N/Cc1ccncc1)c1cnccn1 | 32 | inactive | inactive | inactive | inactive | inactive | inactive
12 | N/C(=N/CCc1c[nH]cn1)c1ccccn1 | 26.8 | inactive | inactive | inactive | inactive | inactive | inactive
13 | N/C(=N/Cc1ccco1)c1ccccn1 | 28.7 | inactive | inactive | inactive | inactive | inactive | inactive
14 | N/C(=N/Cc1ccncc1)c1ccccn1 | 28.2 | inactive | inactive | inactive | inactive | inactive | inactive
15 | N/C(=N/Cc1ccccn1)c1cnccn1 | 0 | inactive | inactive | inactive | inactive | inactive | inactive
16 | N/C(=N/CCCn1ccnc1)c1cnccn1 | 21.8 | inactive | inactive | inactive | inactive | inactive | inactive
17 | N/C(=N/CCc1c[nH]c2ccccc12)c1ccncc1 | 28.2 | inactive | inactive | inactive | inactive | inactive | inactive
18 | N/C(=N/CCc1c[nH]c2ccccc12)c1ccccn1 | 23.6 | inactive | inactive | inactive | inactive | inactive | inactive
